One may read the EC50 as the concentration at which the effect is half-maximal.

Holding throughout (format): cell-based
The subject of assay [1] is HeLa cells. Briefly: Light/dark cytotoxicity study (MTT) in HeLa cells. The procedure: MRC5 and HeLa cell cultures were maintained in MEM (minimum essential medium) containing 10% (v/v) foetal calf serum (FCS), 1% (v/v) non-essential amino acids, 2 μg/ml Fungizone (Trade Mark) (amphotericin B), 50 μg/ml penicillin, 50 μg/ml streptomycin, 20 mM HEPES and 1% (v/v) L-Glutamine. Cells were passaged at least twice before use in the cytotoxicity assays.
Stock haematoporphyrin water-dimethyl sulphoxide (DMSO) (100:1 (v/v)) solutions were diluted with MEM containing 10% FCS. Cells were seeded at 5,000 cells/well in 96-well plates and incubated for 24 hr at 37° C. The 24 hour incubation period was chosen having regard to the slower uptake of haernatoporphyrin in the absence of Cremophor, when compared to the compounds of the present invention in the presence of Cremophor (see below). Cells were then incubated with haematoporphyrin in the dark for 24 hr at 37° C. The haematoporphyrin laden culture medium was then removed by filtration, the cells were washed with PBS and fresh culture medium was added to each well. A 500 W light source, passed through a red glass and water filter barrier, (to ensure cells are irradiated with light of wavelength greater than 570 nm) was used to irradiate the plates for both 15 and 30 min. Following irradiation, the cells were incubated for a further 48 hr at 37° C. before being assessed for cell survival.
Stock 2a or 2b water-Cremophor EL (Trade Mark—CAS 61791-12-6) (1:250 (v/v)) solutions were diluted with MEM containing 10% FCS. Cells were seeded at 5,000 cells/well in 96-well plates and incubated for 24 hr at 37° C. Cells were then incubated with 2a or 2b in the dark for 3 hr at 37° C. The 3 hour incubation period was chosen to reflect the faster cellular uptake of 2a or 2b in the presence of Cremophor, when compared to the cellular uptake of haematoporphyrins in the absence of Cremophor. The 2a or 2b laden culture medium was then removed by filtration, the cells were washed with PBS and fresh culture medium was added to each well. The plates were then irradiated using a 500 W light source passed through a red glass and water filter barrier, (thereby ensuring cells are irradiated with light of wavelength greater than 570 nm) for both 15 and 30 min.
Following irradiation, the cells were incubated for a further 48 hr at 37° C. before being assessed for cell survival. The dark toxicity of compounds of the present invention was also assessed in each experiment.
Cell viability was estimated using the standard MTT (microtiter tetrazolium) assay. This assay measures mitochondrial dehydrogenase activity and is based on the reduction of a soluble yellow tetrazolium salt to a blue, insoluble MTT formazan product by this enzyme. The subsequent colour change produced by viable cells was quantified using a plate reader (VICTOR^2 1420 multilabel HTS counter, Wallac). As mentioned above under the headings “Cytotoxicity”, the cells are incubated at 37° C. for 48 hours, following which the MTT solution was added to the cells at a final concentration of 0.5 mg/ml and incubated for 3 hr at 37° C. The MTT solution was then removed by filtration and 100 μl DMSO was added to each well in order to lyse the cells and release the formazan dye. The plates were read 1 hr later at 540 nm.
Prism (Trade Mark) […] was used to graph the data obtained from the MTT assays and the uptake/efflux experiments. This programme allows non-linear regression analysis and the generation of sigmoidal dose response curves. Prism (Trade Mark) also automatically calculates EC50 values.
Light toxicity assays were also carried out as described above under “Assay methods” in HeLa and MRC5 cells for haematoporphyrin (FIGS. 9 and 10), 2a (FIGS. 11 and 12) and 2b (FIGS. 13 and 14).

The nature of assay [2]: Confocal microscopy subcellular localisation. The settings on record: FIGS. 17–19. The procedure: Cells were seeded at a density of 30,000 cells/well in chamber slides and allowed to adhere for 24 hr. 2a (10^−5 M) was then added to each chamber and incubated at 37° C. in the dark for either 1 hr or 3 hrs at 37° C.—a one hour incubation was used for FIGS. 4 and 5. The medium was removed and the cells were washed 4 times with drug-free (2a free) medium. The cells were then fixed with 3.7% (v/v) formaldehyde for 15 min at 37° C. The fixative solution was removed and the cells were washed twice with sterile PBS. DAPI (4′,6-diamidino-2-phenylindole) nuclear stain (1/1000) was then incubated with the cells for 10 min at 37° C., following which the cells were washed twice with PBS. Cells were then mounted in Vectashield (Trade Mark) mounting medium.
The cells were viewed using a Leica TCSSL Confocal Laser Scanning microscope (the LSM510 META Confocal Microscope was used to visualise DAPI and 2a simultaneously).
These could be lysosomes which have a typical size range of 0.2–2 μm; peroxisomes which have a typical size range of 0.5–1.5 μm; or endosomes which have a typical size range of 0.2–2 μm. It will be appreciated that localisation of the photosensitising compounds of the invention in different subcellular sites may impact on how effective the photodynamic therapy may be.

The subject of assay [3] is HeLa cells. The experiment in a line: F-actin staining fluorescence microscopy of treated HeLa cells. The procedure: FIG. 15 illustrates a control experiment which is a fluorescence microscope image of F-actin stained HeLa cells (with rhodamine phalloidine, red colour) 24 hours after treatment with Compound 2a and no exposure to light (0 min light dose). FIG. 15 illustrates such F-Actin stained cells are live.
FIG. 16 confirms cell death following treatment with Compound 2a and 30 minute 500 W light dose, using fluorescence microscopy. More specifically, FIG. 16 is a fluorescence microscope image of F-actin stained HeLa cells (with rhodamine phalloidine, red colour) 24 hours after treatment with Compound 2a and 30 minute light dose.

Each structure is given as a SMILES string. Like-named read-outs stand apart in the source and are kept apart here.

On to `F[B-]1(F)n2c(-c3ccccc3)cc(-c3ccccc3)c2N=C2C(c3ccccc3)=CC(c3ccccc3)=[N+]21` [Compound 2a], for which the EC50 was found to be 23 µM with HeLa cells [1] (0 J/cm^2 light (no light), read-out: EC50 (dark toxicity)); 4.5 µM with HeLa cells [1] (8 J/cm^2 light (15 mins from a 500 W light source), read-out: EC50); 1.3 µM in the assay with HeLa cells [1] (16 J/cm^2 light (30 mins from a 500 W light source), read-out: EC50). Further, the cellular localisation result in assay [2] is “both diffuse and punctuated cytoplasmic localisation”. The “cell state by F-actin staining” value in the assay with HeLa cells [3] (24 hours after treatment and 30 minute 500 W light dose) was “cell death”; in the assay on HeLa cells [3] (24 hours after treatment, no exposure to light) it was “live”.
